Results as given in PMC8632988, “Inhibition of SYK and cSrc kinases can protect bone and cartilage in preclinical models of osteoarthritis and rheumatoid arthritis” (Scientific Reports, 2021).
Several values for one entry are separate records, joined by “and”; a condition that tells them apart may be missing. Equal values may be shown once.

Test system: DBA/1 mice, CIA model
Assay: Collagen-induced arthritis model in mice
Format: in vivo, mouse
Details: BID
Experimental: Collagen-induced arthritis (CIA) model was performed at Bolder BioPATH, USA. Study design and animal usage was approved by Bolder BioPATH’s Institutional Animal Care and Use Committee. CIA was induced in 6–7 week old male DBA/1 mice with body weight of 15–26 g (Harlan, Inc) by intradermal injection of Freund’s Complete Adjuvant (Difco) containing bovine type II collagen (Bolder BioPATH) on day 0 and again on day 21 according to the standard protocol. […] After that mice were randomized into six groups: a control group of four, vehicle group and four treatment groups of ten mice each. […] Each paw was scored daily for inflammation. Therapeutic and prophylactic paws were considered. At study termination mice were euthanized by CO2 inhalation followed by cervical dislocation. Fore paws, hind paws, and knees were removed for microscopy.
Mice were weighed on arthritis days 1, 3, 5, 7, 9, and 11 (prior to necropsy). Daily clinical scores were given for each of the paws (right front, left front, right rear, left rear) on days 1–11 using the following criteria:
After 1–2 days in fixative and 4–5 days in 5% formic acid for decalcification, tissues were trimmed, processed for paraffin embedding, sectioned at 8 µm and stained with toluidine blue. Hind paws and knees were embedded and sectioned in the frontal plane. Two joints from each animal were processed for histopathology evaluation. The joints were then scored by two independent readers as indicated below. When scoring, severity of changes as well as number of individual joints affected were considered. When only 1–3 joints of the paws or ankles out of a possibility of numerous metacarpal/metatarsal/digit or tarsal/tibiotarsal joints were affected, an arbitrary assignment of a maximum score of 1, 2 or 3 for parameters below was given depending on severity of changes. If more than 3 joints were involved, the criteria below were applied to the most severely affected/majority of joints.

Question: For `COc1cc(Nc2ncnc(Nc3cc4c(cn3)NC(=O)C(C)(C)O4)n2)cc(OC)c1OC` [MT-SYK-03], which “% inhibition to Vehicle, Paw Score Total AUC Sum (d1-11)” value (103 mg/kg PO) is on record?
Answer: 12%

Question: What about the “Paw Score Total AUC Sum (d1-11)” value (103 mg/kg PO, group Mean) of the same compound?
Answer: 28.48

Question: What about the “Paw Score Total AUC Sum (d1-11)” value (103 mg/kg PO, individual animals) of the same compound?
Answer: 27.25 and 32.38 and 26.00 and 35.88 and 12.50 and 29.00 and 37.38 and 33.00 and 33.88 and 17.50

Question: What about the “% inhibition to Vehicle, Average Paw Score” value (Day 1, 103 mg/kg PO) of the same compound?
Answer: 0%

Question: What about the “Average Paw Score Per Arthritis Day (All Paws)” value (Day 1, 103 mg/kg PO, group Mean) of the same compound?
Answer: 0.80

Question: What about the “Average Paw Score Per Arthritis Day (All Paws)” value (Day 1, 103 mg/kg PO, individual animals, 103 mg/kg) of the same compound?
Answer: 0.50 and 1.50 and 1.00

Question: What about the “% inhibition to Vehicle, Average Paw Score” value (Day 2, 103 mg/kg PO) of the same compound?
Answer: 18%

Question: What about the “Average Paw Score Per Arthritis Day (All Paws)” value (Day 2, 103 mg/kg PO, group Mean) of the same compound?
Answer: 1.50

Question: And the “Average Paw Score Per Arthritis Day (All Paws)” value (Day 2, 103 mg/kg PO, individual animals, 103 mg/kg)?
Answer: 1.25 and 2.00 and 1.00 and 2.50 and 1.50 and 0.50

Question: And the “% inhibition to Vehicle, Average Paw Score” value (Day 3, 103 mg/kg PO)?
Answer: 15%

Question: What about the “Average Paw Score Per Arthritis Day (All Paws)” value (Day 3, 103 mg/kg PO, group Mean) of the same compound?
Answer: 2.25

Question: What about the “Average Paw Score Per Arthritis Day (All Paws)” value (Day 3, 103 mg/kg PO, individual animals, 103 mg/kg) of the same compound?
Answer: 2.25 and 3.00 and 1.25 and 3.25 and 2.00 and 2.75 and 2.50

Question: What about the “% inhibition to Vehicle, Average Paw Score” value (Day 4, 103 mg/kg PO) of the same compound?
Answer: 13%

Question: What about the “Average Paw Score Per Arthritis Day (All Paws)” value (Day 4, 103 mg/kg PO, group Mean) of the same compound?
Answer: 2.75

Question: What about the “Average Paw Score Per Arthritis Day (All Paws)” value (Day 4, 103 mg/kg PO, individual animals, 103 mg/kg) of the same compound?
Answer: 2.75 and 3.25 and 2.00 and 3.50 and 1.25 and 3.00

Question: What about the “% inhibition to Vehicle, Average Paw Score” value (Day 5, 103 mg/kg PO) of the same compound?
Answer: 12%

Question: What about the “Average Paw Score Per Arthritis Day (All Paws)” value (Day 5, 103 mg/kg PO, group Mean) of the same compound?
Answer: 3.08

Question: And the “Average Paw Score Per Arthritis Day (All Paws)” value (Day 5, 103 mg/kg PO, individual animals, 103 mg/kg)?
Answer: 3.00 and 3.50 and 2.75 and 3.75 and 1.25 and 4.00 and 2.00

Question: What about the “% inhibition to Vehicle, Average Paw Score” value (Day 6, 103 mg/kg PO) of the same compound?
Answer: 11%

Question: What about the “Average Paw Score Per Arthritis Day (All Paws)” value (Day 6, 103 mg/kg PO, group Mean) of the same compound?
Answer: 3.18

Question: What about the “Average Paw Score Per Arthritis Day (All Paws)” value (Day 6, 103 mg/kg PO, individual animals, 103 mg/kg) of the same compound?
Answer: 3.00 and 3.50 and 3.75 and 1.25 and 4.00 and 2.25

Question: What about the “% inhibition to Vehicle, Average Paw Score” value (Day 7, 103 mg/kg PO) of the same compound?
Answer: 10%

Question: And the “Average Paw Score Per Arthritis Day (All Paws)” value (Day 7, 103 mg/kg PO, group Mean)?
Answer: 3.28

Question: What about the “Average Paw Score Per Arthritis Day (All Paws)” value (Day 7, 103 mg/kg PO, individual animals, 103 mg/kg) of the same compound?
Answer: 3.00 and 3.50 and 3.25 and 4.00 and 1.25 and 4.25 and 3.75 and 2.25

Question: What about the “% inhibition to Vehicle, Average Paw Score” value (Day 8, 103 mg/kg PO) of the same compound?
Answer: 12%

Question: And the “Average Paw Score Per Arthritis Day (All Paws)” value (Day 8, 103 mg/kg PO, group Mean)?
Answer: 3.33

Question: And the “Average Paw Score Per Arthritis Day (All Paws)” value (Day 8, 103 mg/kg PO, individual animals, 103 mg/kg)?
Answer: 3.25 and 3.50 and 4.00 and 1.25 and 4.50 and 3.75 and 4.25 and 2.00

Question: What about the “% inhibition to Vehicle, Average Paw Score” value (Day 9, 103 mg/kg PO) of the same compound?
Answer: 13%

Question: What about the “Average Paw Score Per Arthritis Day (All Paws)” value (Day 9, 103 mg/kg PO, group Mean) of the same compound?
Answer: 3.43

Question: What about the “Average Paw Score Per Arthritis Day (All Paws)” value (Day 9, 103 mg/kg PO, individual animals, 103 mg/kg) of the same compound?
Answer: 3.25 and 3.75 and 3.50 and 4.25 and 1.50 and 4.50 and 2.00

Question: What about the “% inhibition to Vehicle, Average Paw Score” value (Day 10, 103 mg/kg PO) of the same compound?
Answer: 13%

Question: And the “Average Paw Score Per Arthritis Day (All Paws)” value (Day 10, 103 mg/kg PO, group Mean)?
Answer: 3.53

Question: And the “Average Paw Score Per Arthritis Day (All Paws)” value (Day 10, 103 mg/kg PO, individual animals, 103 mg/kg)?
Answer: 3.50 and 3.75 and 4.25 and 1.50 and 4.75 and 4.00 and 2.00

Question: What about the “% inhibition to Vehicle, Average Paw Score” value (Day 11, 103 mg/kg PO) of the same compound?
Answer: 12%

Question: And the “Average Paw Score Per Arthritis Day (All Paws)” value (Day 11, 103 mg/kg PO, group Mean)?
Answer: 3.55

Question: And the “Average Paw Score Per Arthritis Day (All Paws)” value (Day 11, 103 mg/kg PO, individual animals, 103 mg/kg)?
Answer: 3.50 and 3.75 and 4.00 and 4.25 and 1.50 and 4.75 and 2.00

Question: What about the “% inhibition to Vehicle, Total AUC Sum (d1-11)” value (MT-SYK-03 103 mg/kg PO) of the same compound?
Answer: 18%

Question: What about the “Summed Prophylactic (Non-Enrollment) Paw Score” value (MT-SYK-03 103 mg/kg PO, Day 1, group mean) of the same compound?
Answer: 0.00

Question: And the “Summed Prophylactic (Non-Enrollment) Paw Score” value (MT-SYK-03 103 mg/kg PO, Day 1, individual animals)?
Answer: 0

Question: And the “% inhibition to Vehicle, Summed Prophylactic (Non-Enrollment) Paw Score” value (from here on “% inhibition … (Non-Enrollment) Paw Score”) (MT-SYK-03 103 mg/kg PO, Day 2)?
Answer: 15%

Question: And the “Summed Prophylactic (Non-Enrollment) Paw Score” value (MT-SYK-03 103 mg/kg PO, Day 2, group mean)?
Answer: 2.20

Question: And the “Summed Prophylactic (Non-Enrollment) Paw Score” value (MT-SYK-03 103 mg/kg PO, Day 2, individual animals, 103 mg/kg)?
Answer: 2 and 4 and 1 and 3 and 0

Question: And the “% inhibition … (Non-Enrollment) Paw Score” value (MT-SYK-03 103 mg/kg PO, Day 3)?
Answer: 23%

Question: And the “Summed Prophylactic (Non-Enrollment) Paw Score” value (MT-SYK-03 103 mg/kg PO, Day 3, group mean)?
Answer: 3.60

Question: What about the “Summed Prophylactic (Non-Enrollment) Paw Score” value (MT-SYK-03 103 mg/kg PO, Day 3, individual animals, 103 mg/kg) of the same compound?
Answer: 5 and 3 and 2 and 1 and 6 and 4

Question: What about the “% inhibition … (Non-Enrollment) Paw Score” value (MT-SYK-03 103 mg/kg PO, Day 4) of the same compound?
Answer: 19%

Question: What about the “Summed Prophylactic (Non-Enrollment) Paw Score” value (MT-SYK-03 103 mg/kg PO, Day 4, group mean) of the same compound?
Answer: 5.20

Question: And the “Summed Prophylactic (Non-Enrollment) Paw Score” value (MT-SYK-03 103 mg/kg PO, Day 4, individual animals, 103 mg/kg)?
Answer: 7 and 3 and 5 and 6 and 1 and 4

Question: And the “% inhibition … (Non-Enrollment) Paw Score” value (MT-SYK-03 103 mg/kg PO, Day 5)?
Answer: 16%

Question: And the “Summed Prophylactic (Non-Enrollment) Paw Score” value (MT-SYK-03 103 mg/kg PO, Day 5, group mean)?
Answer: 6.10

Question: And the “Summed Prophylactic (Non-Enrollment) Paw Score” value (MT-SYK-03 103 mg/kg PO, Day 5, individual animals, 103 mg/kg)?
Answer: 8 and 3 and 6 and 1 and 10 and 7 and 4

Question: And the “% inhibition … (Non-Enrollment) Paw Score” value (MT-SYK-03 103 mg/kg PO, Day 6)?
Answer: 16%

Question: What about the “Summed Prophylactic (Non-Enrollment) Paw Score” value (MT-SYK-03 103 mg/kg PO, Day 6, group mean) of the same compound?
Answer: 6.40

Question: What about the “Summed Prophylactic (Non-Enrollment) Paw Score” value (MT-SYK-03 103 mg/kg PO, Day 6, individual animals, 103 mg/kg) of the same compound?
Answer: 8 and 3 and 9 and 6 and 1 and 10 and 5

Question: And the “% inhibition … (Non-Enrollment) Paw Score” value (MT-SYK-03 103 mg/kg PO, Day 7)?
Answer: 17%

Question: What about the “Summed Prophylactic (Non-Enrollment) Paw Score” value (MT-SYK-03 103 mg/kg PO, Day 7, group mean) of the same compound?
Answer: 6.50

Question: And the “Summed Prophylactic (Non-Enrollment) Paw Score” value (MT-SYK-03 103 mg/kg PO, Day 7, individual animals, 103 mg/kg)?
Answer: 8 and 3 and 9 and 7 and 1 and 10 and 6 and 5

Question: And the “% inhibition … (Non-Enrollment) Paw Score” value (MT-SYK-03 103 mg/kg PO, Day 8)?
Answer: 20%

Question: And the “Summed Prophylactic (Non-Enrollment) Paw Score” value (MT-SYK-03 103 mg/kg PO, Day 8, group mean)?
Answer: 6.50

Question: And the “Summed Prophylactic (Non-Enrollment) Paw Score” value (MT-SYK-03 103 mg/kg PO, Day 8, individual animals, 103 mg/kg)?
Answer: 8 and 3 and 9 and 7 and 1 and 10 and 6 and 5

Question: And the “% inhibition … (Non-Enrollment) Paw Score” value (MT-SYK-03 103 mg/kg PO, Day 9)?
Answer: 20%

Question: And the “Summed Prophylactic (Non-Enrollment) Paw Score” value (MT-SYK-03 103 mg/kg PO, Day 9, group mean)?
Answer: 6.80

Question: What about the “Summed Prophylactic (Non-Enrollment) Paw Score” value (MT-SYK-03 103 mg/kg PO, Day 9, individual animals, 103 mg/kg) of the same compound?
Answer: 8 and 3 and 10 and 2 and 6 and 5

Question: And the “% inhibition … (Non-Enrollment) Paw Score” value (MT-SYK-03 103 mg/kg PO, Day 10)?
Answer: 18%

Question: And the “Summed Prophylactic (Non-Enrollment) Paw Score” value (MT-SYK-03 103 mg/kg PO, Day 10, group mean)?
Answer: 7.20

Question: And the “Summed Prophylactic (Non-Enrollment) Paw Score” value (MT-SYK-03 103 mg/kg PO, Day 10, individual animals, 103 mg/kg)?
Answer: 9 and 3 and 11 and 8 and 2 and 10 and 7 and 5
